Series [1] has as its target T1, Thymidylate synthetase (TS) (Mus musculus, UniProt P07607).
T1 construct: A 50,000 g supernatant was prepared from a TS over-producing (45-fold) L1210 cell line; endogenous in cells; host or cells: L1210 (TS over-producing subline, 45-fold), 50,000 g supernatant
The series can be described thus: Thymidylate synthetase (TS) inhibition, 3H release assay. It is filed as biochemical. The settings on record: for TS IRP (inverse relative potency, I50 test compound/I50 CB3717): relative to CB3717. How it is done: Each compound was dissolved in 0.15M NaHCO3. Thymidylate synthetase was assayed by a ^3 H release method. A 50,000 g supernatant was prepared from a TS over-producing (45-fold) L1210 cell line that was developed in this Institute. The preparation buffer was 0.05M potassium phosphate/0.01M 2-mercaptoethanol, pH 7.4. […] The reaction mixture contained a total of 25 umoles of phosphate. Incubation time was for 1 hour at 37° C.
The results are tabulated below (Table 5). The I50 was defined as the inhibitor concentration necessary to reduce the activity of TS by 50%.

The test system of series [2] is L1210 cells. The experiment in a line: L1210 cell culture growth inhibition. It is filed as cell-based. Conditions: Mus musculus, 48 hours, read-out: L1210 ID50. On the procedure:
(§1) Cells in the log phase of growth were diluted to about 5×10^4 /ml and duplicate 5ml aliquots were added to 50 ml tissue culture flasks containing the appropriate additions (diluted in RPMI and sterilised by Millipore filtration). Cell counts after 48 hours of incubation were obtained by Coulter counting.

In series [3] the test system is L1210/C15 cells. The series can be described thus: L1210/C15 cell culture growth inhibition (overproduces TS 45-fold). The series is classed as cell-based. How it is done: Cell counts after 48 hours of incubation were obtained by Coulter counting.
For series [4] the following is noted: cited from earlier work.
Series [5] concerns L1210 tumour. The settings on record: grown in vivo; cited from earlier work.
Series [6] deals with L1210 tumour. The series can be described thus: Treatment of L1210 tumour-bearing mice. The series is classed as in vivo, mouse. How it is done:
(§2) The L1210 tumour is carried routinely in DBA2 mice at the Institute of Cancer Research (L1210/CBRI). For experiments 5×10^4 cells were implanted i.p. into male C57Bl×DBA2 F1 hybrid mice 3 days prior to treatment. […] The control group consisted of 9 mice and treated groups 6 or 7 mice.

Series [7] is described as follows: Comparative pharmacokinetics in the mouse (plasma, liver, kidney levels). The series is classed as in vivo. The settings on record: for concentration at 3 h / concentration at 6 h: mouse, plasma, ip, read-out: Plasma quinazoline conc.
Method: 3 Hours and 6 hours after administration groups of three mice at each dose level were sacrificed by exsanguination via cardiac puncture. Plasma was prepared and the livers and kidneys excised and weighed.
The subject of series [8] is de novo thymidylate synthesis in L1210 cells. The series can be described thus: Incorporation of 3H dUrd into acid-precipitable material in L1210 cells. The series is classed as cell-based. On the procedure:
L1210 cells were used at a concentration of 10^5 /ml. Incubation at 37° C. was in complete RPMI tissue culture medium plus or minus drugs for the lengths of time indicated on the graphs. After this time ^3 H dUrd was added at a concentration of 2 uCi/ml (about 0.2 uM). Three 1 ml aliquots were removed after 20 minutes, placed on ice and mixed with 1 ml of ice-cold phosphate buffered saline (PBS). Precipitation onto glass-fibre discs was performed by trichloroacetic acid washing followed by PBS. […] This is an indirect measurement of de novo thymidylate synthesis in whole cells. […] These concentrations are 10 times the ID50 values.

The nature of series [9]: Toxicity and weight loss in treated L1210 tumour-bearing mice. The series is classed as in vivo, mouse. The settings on record: 200 mg/kg, data not included. On the procedure: as §2
The conditions of series [10]: man, cited from earlier work.
Series [11] is described as follows: in vivo. Conditions: rat, iv, 100 mg/kg, Plasma levels.
Method: (§3) During and after the infusion blood and bile samples were collected. Four hours after the experiment the rats were sacrificed and the urine collected from the bladder and the liver and kidneys removed.
(§4) Samples of plasma were also analysed for alanine transaminase.
For series [12], the system named is L1210 cells. Conditions: grown in vitro; cited from earlier work.
The conditions of series [13]: rat, in vivo; for concentration: iv, 100 mg/kg.
Method: as §3, §4
Series [14] in a line: Urinary and faecal elimination in the mouse. It is filed as in vivo. Conditions: ip, 100 mg/kg i.p., 0-48 h.
Series [15] has as its system alanine transaminase. The experiment in a line: Comparative hepatotoxicity in the mouse (plasma alanine transaminase). It is filed as in vivo. On the procedure: […]. Plasma was prepared and the livers and kidneys excised and weighed.
Samples of plasma were also analysed for the enzyme alanine transaminase, an indicator of hepatotoxicity. […]

For series [16] the following is noted: mouse; cited from earlier work.
Series [17] has as its system L1210 cells. The experiment in a line: Reversal of L1210 toxicity by co-incubation with thymidine. The series is classed as cell-based. The settings on record: compound 50 uM + 10 uM thymidine. How it is done: as §1
Series [18] has as its system L1210 cells. Conditions: cited from earlier work.
The mark [19] stands for this setting: 100 mg/kg i.p., 3 h post-treatment.
Setting [20] is: 100 mg/kg i.p., 6 h post-treatment.
Setting [21] is: 300 mg/kg i.p., 3 h post-treatment.
The mark [22] stands for this setting: 300 mg/kg i.p., 6 h post-treatment.

SMILES strings stand for the structures. Read-outs that look alike come from different tables or passages of the source.

T1 sequence (P07607 whole entry): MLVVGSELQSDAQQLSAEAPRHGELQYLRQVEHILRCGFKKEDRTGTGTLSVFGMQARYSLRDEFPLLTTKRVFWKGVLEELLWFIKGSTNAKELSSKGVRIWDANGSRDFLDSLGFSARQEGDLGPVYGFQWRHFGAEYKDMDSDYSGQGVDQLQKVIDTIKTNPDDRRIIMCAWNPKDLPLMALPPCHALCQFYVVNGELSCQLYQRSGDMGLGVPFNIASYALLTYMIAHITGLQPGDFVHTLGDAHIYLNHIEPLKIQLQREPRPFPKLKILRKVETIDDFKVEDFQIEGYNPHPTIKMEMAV

With `O=C(O)CC[C@H](NC(=O)c1ccc(NCc2ccc3nc[nH]c(=O)c3c2)cc1)C(=O)O` [CB3816, N-(4-(((3,4-dihydro-4-oxo-6-quinazolinyl)methyl)amino)benzoyl)-L-glutamic acid], the “TS IRP (inverse relative potency, I50 test compound/I50 CB3717)” value in [1] was found to be 1136. Besides, the IC50 in [2] was found to be 700 nM.
Take `C#CCN(Cc1ccc2nc[nH]c(=O)c2c1)c1ccc(C(=O)N[C@@H](CCC(=O)O)C(=O)O)s1` [CB3866, N-(5-(N-((3,4-dihydro-4-oxo-6-quinazolinyl)methyl)prop-2-ynylamino)thien-2-oyl)-L-glutamic acid]: the IC50 in [1] (TS from TS over-producing L1210 line, 200 uM (±)-L-5,10-CH2FH4, 1 hour at 37° C, read-out: TS I50) is 1700 nM. Besides, in series [1], the “TS IRP (inverse relative potency, I50 test compound/I50 CB3717)” value was 85.
As to `Cc1c(CNc2ccc(C(=O)N[C@@H](CCC(=O)O)C(=O)O)cc2)ccc2nc(N)nc(N)c12` [CB3703, 5CH35,8-dideazaaminopterin], the “resistance of L1210/C15 cells” value in [3] was “not resistant”.
The same measure, in the same setting: under `CN(Cc1cnc2nc(N)nc(N)c2n1)c1ccc(C(=O)N[C@@H](CCC(=O)O)C(=O)O)cc1` [methotrexate] stands “not resistant”.
On to `C#CCN(Cc1ccc2nc(N)nc(O)c2c1)c1ccc(C(=O)N[C@@H](CCC(=O)O)C(=O)O)cc1` [CB3717, N-(4-(N-((2-amino-4-hydroxy-6-quinazolyl)methyl)prop-2-ynylamino)benzoyl)-L-glutamic acid, reference compound], for which the “solubility at acid pH” value in series [4] is listed as “poor solubility”. The “activity against L1210 cells in vivo” value in series [5] was “active against L1210 cells”. Also, in series [6] (50 mg/kg i.p. daily ×5), the “"cures" (survived >100 days)” value was “about 70%”. For the same molecule, the “"cures"” value in series [6] (100 mg/kg (the optimal dose), many previous experiments) is 80-100%. Besides, the “L1210/C15 ID50” value in series [3] (48 hours, at 100 uM) was “no inhibition”. Besides, the Kidney quinazoline level in [7] (setting [19]) was found to be 13 ± 2 % dose administered; in series [7] (setting [20]), 20 ± 8 % dose administered; in series [7] (setting [21]), 6 ± 1 % dose administered; in [7] (setting [22]) it was 16 ± 1 % dose administered. Besides, the Liver quinazoline level in [7] (setting [19]) worked out at 32 ± 4 % dose administered; in [7] (setting [20]), 11 ± 2 % dose administered; in series [7] (setting [21]), 22 ± 8 % dose administered; in series [7] (setting [22]) it was 14 ± 6 % dose administered. Besides, in series [7] (mice, 3 and 6 hours after i.p. dose, for CB3804 except plasma 3 h at 500 mg/kg), the “detection in plasma, liver and kidneys” value is “readily detected”. Further, the concentration at 3 h in [7] (setting [19]) came to 134 ± 34 µM; in series [7] (setting [21]), 214 ± 55 µM. Further, the concentration at 6 h in series [7] (setting [20]) came to 59 ± 38 µM; in [7] (setting [22]) it was 362 ± 32 µM. Further, the activity at 50 µM in series [8] (Mus musculus, L1210, 10 min, 50 uM, by about 10 minutes) was < 20%. Also, the weight loss result in series [9] is reported as “about 10%”. Moreover, in series [9] (mouse, in vivo, ip, read-out: death (of the animals)), the mortality was ~50%. Also, in [10], the hepatic toxicity result is recorded as “apparently non-dose-related (although not life-threatening) hepatic toxicity”. The “liver toxicity: alanine transaminase” value in series [10] and in [16] was “transient rise in alanine transaminase” in each case. Moreover, the “responses noted during Phase I/II clinical studies” value in series [10] (particularly breast and ovary) was “Several minor and partial responses”. Further, the concentration at 0.5 h in series [11] was determined as 412 µM. This molecule also returned a concentration at 1 h in [11] of 908 µM. The “activity against L1210 cells in vitro” value in series [12] is reported as “active against L1210 cells”. In addition, the “clearance from the plasma (in words)” value in series [13] is recorded as “cleared less rapidly”. Moreover, the concentration turned out to be 447 µM in series [13] (0.5 h) and 878 µM in [13] (1 h). The dose excreted at 48 h in [14] (faeces, read-out: Faecal excretion of the parent compound) came out at 26 ± 7%; in series [14] (urine, read-out: Urinary excretion of the parent compound) it was 15 ± 3%. The “Plasma alanine transaminase level” value in series [15] (setting [19]) was 225 ± 146 U/L; in [15] (setting [20]), 273 ± 106 U/L; in series [15] (setting [21]) it was 86 ± 61 U/L; in [15] (setting [22]) it was 973 ± 178 U/L. For the same molecule, the “Levels of alanine transaminase (in words)” value in series [15] (mice i.p., normal range 5-25U/l) is “markedly elevated”. Further, the “kidney toxicity: plasma urea” value in series [16] is “rise in plasma urea”. Moreover, the “Cell count at 48 hours as % control” value in series [17] is given as 103 % control. Further, the “effect of thymidine on cytotoxic effect” value in [18] is given as “prevented in both cases by thymidine”.
Take `CCN(Cc1ccc2nc[nH]c(=O)c2c1)c1ccc(C(=O)N[C@@H](CCC(=O)O)C(=O)O)cc1` [CB3822, N-(4-(N-((3,4-dihydro-4-oxo-6-quinazolinyl)methyl)ethylamino)benzoyl)-L-glutamic acid]: the “TS IRP (inverse relative potency, I50 test compound/I50 CB3717)” value in series [1] was found to be 26. Further, the IC50 in series [2] is 2600 nM.
The like results for `C=CCN(Cc1ccc2nc[nH]c(=O)c2c1)c1ccc(C(=O)N[C@@H](CCC(=O)O)C(=O)O)cc1` [CB3826, N-(4-(N-((3,4-dihydro-4-oxo-6-quinazolinyl)methyl)prop-2-enylamino)benzoyl)-L-glutamic acid] were, in that order, 56 and 1700 nM.
`Nc1nc2ccc(CNc3ccc(C(=O)N[C@@H](CCC(=O)O)C(=O)O)cc3)cc2c(=O)[nH]1` [CB3705, 5,8-dideazafolic acid]: the “3H dUrd incorporation” value was “did not produce rapid suppression” in series [8] (10 times the ID50 concentration) and “did not significantly effect” in series [8] (over 2 hours at the ID50 concentration (5 uM)). Besides, the IC50 in series [2] is 5000 nM.
For the molecule `CN(Cc1ccc2nc[nH]c(=O)c2c1)c1ccc(C(=O)N[C@@H](CCC(=O)O)C(=O)O)cc1` [CB3824, N-(4-(N-((3,4-dihydro-4-oxo-6-quinazolinyl)methyl)methylamino)benzoyl)-L-glutamic acid], in series [1], the “TS IRP (inverse relative potency, I50 test compound/I50 CB3717)” value is listed as 53. Also, the IC50 in [2] was 1100 nM.

The record behind these values is patent publication US5236927A, “Anti-cancer quinazoline derivatives” (National Research Development Corporation, priority 1985, dated 1993).
